Data published in patent US20090311321A1, “ORAL DISINTEGRATING TABLET HAVING MASKED BITTER TASTE AND METHOD FOR PRODUCTION THEREOF” (KISSEI PHARMACEUTICAL CO., LTD., priority 2006, published 2009).

Assay: Solubility of mitiglinide calcium hydrate (water, pH dependence)
Assay type: physicochemical
Description: The inventors of the present invention conducted studies on orally disintegrating tablets containing mitiglinide calcium hydrate. […] Because the orally disintegrating tablets are designed to quickly disintegrate in the mouth, the influence of bitterness becomes a big factor when the active ingredient has a bitter taste. […] Under these circumstances, the inventors of the present invention conducted studies to provide a mitiglinide calcium hydrate-containing orally disintegrating tablet having reduced bitterness and capable of rapidly dissolving in the digestive tract.
As mentioned above, the mitiglinide calcium hydrate-containing preparation is administered immediately before meal, and preferably, rapidly dissolves upon administration to improve postprandial hyperglycemia. It is therefore desirable in an orally disintegrating tablet of the present invention that the tablet rapidly dissolves in the digestive tract, particularly in the stomach, after having disintegrated in the mouth. […] It is therefore preferable that an orally disintegrating tablet of the present invention rapidly dissolve in the stomach and water.

Solubility in water (water): does not easily dissolve in water
Compound: O=C(O)[C@H](CC(=O)N1C[C@H]2CCCC[C@H]2C1)Cc1ccccc1 [mitiglinide calcium hydrate, (+)-Monocalcium bis[(2S,3a,7a-cis)-α-benzylhexahydro-γ-oxo-2-isoindolinebutyrate]dihydrate]
pH-dependent solubility (alkaline versus neutral to acidic pH): soluble in an alkaline pH range, and insoluble toward the neutral to acidic pH
